Data reported in patent publication US20220389009A1, “SUBSTITUTED 1,6-NAPHTHYRIDINE INHIBITORS OF CDK5” (Goldfinch Bio, Inc., priority 2019, published 2022).

How the values were obtained:
CDK5/p25 = CDK5/p25 (Homo sapiens, UniProt Q00535); assay: CDK5 mobility shift assay (enzymatic activity of CDK5/p25); assay type: biochemical; conditions: for IC50: 0.154 nM CDK5/p25, FL peptide 29, 60 min at room temperature, read-out: CDK5 IC50; for CDK5/CDK2 specificity: fold more active against CDK5 than CDK2
Chain of CDK5/p25 (Q00535 whole entry): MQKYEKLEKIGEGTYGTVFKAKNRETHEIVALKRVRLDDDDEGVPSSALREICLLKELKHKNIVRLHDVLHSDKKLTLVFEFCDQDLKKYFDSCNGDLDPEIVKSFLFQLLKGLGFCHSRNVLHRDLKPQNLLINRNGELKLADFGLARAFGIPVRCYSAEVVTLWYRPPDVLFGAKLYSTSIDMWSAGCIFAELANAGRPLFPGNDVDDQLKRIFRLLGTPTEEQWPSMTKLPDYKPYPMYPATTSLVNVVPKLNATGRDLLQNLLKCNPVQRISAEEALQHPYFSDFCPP
Chain of CDK5/p25 (Q15078 99-307 partner limits assumed): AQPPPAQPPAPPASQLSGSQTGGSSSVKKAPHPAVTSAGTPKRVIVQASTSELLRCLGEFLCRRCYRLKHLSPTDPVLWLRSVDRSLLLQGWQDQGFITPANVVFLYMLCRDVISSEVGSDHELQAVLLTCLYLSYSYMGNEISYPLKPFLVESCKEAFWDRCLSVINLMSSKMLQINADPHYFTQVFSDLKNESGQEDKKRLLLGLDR
Protocol: (§1) Compound potency was measured via a change in the enzymatic activity of CDK5/p25, and optionally of CDK2/CycA2. Enzymes, CDK5/p25 and CDK2/CycA2, were sourced from Carna Biosciences (Cat #04-106 and 04-103, respectively). Test compound stocks were diluted in 100% DMSO and serially diluted 3-fold in a 384-well plate using a TECAN EVO200 (TECAN). Staurosporine was used as a reference control compound in all assays.
(§2) Twenty nL of compound were transferred into a 384-well plate (Greiner 781201) using an Echo550 (Labcyte Inc). Enzyme, ATP, and 10 mM MgCl2 were preincubated at room temperature with the compound in assay buffer (50 mM HEPES pH 7.5, 1 mM EGTA, 0.01% Brij-35, 0.05% BSA, 2 mM DTT) for 30 minutes. Peptide substrate (FL peptide 29 (Perkin Elmer) for CDK5/p25; FL Peptide 18 (Perkin Elmer) for CDK2/CycA2) was added to initiate the reaction. The final assay contained 0.154 nM CDK5/p25 or 1.25 nM CDK2/CycA2, […] (for CDK5/p25) or 37 μM (for CDK2/CycA2) ATP, and 1.5 μM of the appropriate peptide substrate. The final DMSO concentration was <1%.
(§3) The CDK5/p25 reaction was incubated at room temperature for 60 min. The CDK2/CycA2 reaction was incubated at room temperature for 120 min. The reactions were quenched by the addition of 70 μL stopping buffer containing 0.5 M EDTA. Samples were analyzed using the EZ Reader (Perkin Elmer).
(§4) The results were expressed as % vehicle, where % vehicle=100×(U−C2)/(C1−C2), where U is the signal of sample, C1 is the average of the high controls (signal with no compound added), and C2 is the average of low controls (signal with the buffer in place of enzyme). The ICso is determined by fitting the percentage of inhibition as a function of compound concentrations using a 4-parameter fit defined as follows.
(§5) Y=Bottom+(Top−Bottom)/(1+10^((LobIC50-X)*Hill Slope)), where X is the log of the compound concentration, Y is the % vehicle or response at X, Top and Bottom are the plateaus in the same units as Y, and the Hill's Slope is unitless, and the ICso is the half-maximal inhibitory concentration.

CDK2/CycA2 = CDK2/CycA2 (Homo sapiens, UniProt P24941); assay: CDK2 mobility shift assay (enzymatic activity of CDK2/CycA2); assay type: biochemical; conditions: 1.25 nM CDK2/CycA2, 37 μM ATP, FL Peptide 18, 120 min at room temperature; read-out: CDK2 IC50
Protocol: as §1, §2, §3, §4, §5

Row | IC50 (CDK5/p25) [nM] | IC50 (CDK2/CycA2) [nM] | SMILES | CDK5/CDK2 specificity (CDK5/p25)
1 | 10 to 100 | > 1000 | CN1CCC(=Cc2ccc3cnc(Nc4ccc(-n5ccc(CO)n5)cc4F)cc3n2)CC1 [Compound 150, [1-[3-fluoro-4-([2-[(1-methylpiperidin-4-ylidene)methyl]-1,6-naphthyridin-7-yl]amino)phenyl]pyrazol-3-yl]methanol] | ++ (greater than 10-fold and less than or equal to 100-fold more active against CDK5 than CDK2)
2 | 100 to 1000 | > 1000 | CN1CCC(O)(C(O)c2ccc3cnc(Nc4ccc(-n5cccn5)cc4F)cc3n2)CC1 (stereo not drawn) [Compound 240, 4-[(7-[[2-fluoro-4-(pyrazol-1-yl)phenyl]amino]-1,6-naphthyridin-2-yl) (hydroxy)methyl]-1-methylpiperidin-4-ol] | ++ (greater than 10-fold and less than or equal to 100-fold more active against CDK5 than CDK2)
3 | < 10 | 10 to 100 | CN1CCC(C(C)(O)c2ccc3cnc(Nc4ccc(-c5cccc(C#N)c5)cc4F)cc3n2)CC1 (stereo not drawn) [Compound 335] | ++ (greater than 10-fold and less than or equal to 100-fold more active against CDK5 than CDK2)
4 | < 10 | 100 to 1000 | Cc1ccccc1Nc1cc2nc(S(=O)(=O)C3CCN(C)CC3)ccc2cn1 [Compound 297] | +++ (greater than 100-fold more active against CDK5 than CDK2)
5 | < 10 | 100 to 1000 | CN1CCC(S(=O)(=O)c2ccc3cnc(Nc4ccc(N5CCN(C)CC5)cc4)cc3n2)CC1 [Compound 270] | ++ (greater than 10-fold and less than or equal to 100-fold more active against CDK5 than CDK2)
6 | > 1000 | > 1000 | CN(C)[C@H]1CC[C@@H](N(CC(=O)O)c2ccc3cnc(Nc4ccc(-n5ccc(CO)n5)cc4F)cc3n2)CC1 [Compound 182, [[7-([2-fluoro-4-[3-(hydroxymethyl)pyrazol-1-yl]phenyl]amino)-1,6-naphthyridin-2-yl][(1s,4s)-4-(dimethylamino)cyclohexyl]amino]acetic acid] | ++ (greater than 10-fold and less than or equal to 100-fold more active against CDK5 than CDK2)
7 | < 10 | 10 to 100 | OCCN1CCC(Sc2ccc3cnc(Nc4ccc(-n5ccc(CO)n5)cc4F)cc3n2)CC1 [Compound 138, 2-(4-[[7-([2-fluoro-4-[3-(hydroxymethyl)pyrazol-1-yl]phenyl]amino)-1,6-naphthyridin-2-yl]sulfanyl]piperidin-1-yl)ethanol] | ++ (greater than 10-fold and less than or equal to 100-fold more active against CDK5 than CDK2)
8 | < 10 | 100 to 1000 | CC(c1ccc2cnc(Nc3ccc(-c4cccc(C(N)=O)c4)cc3F)cc2n1)C1CCN(C)CC1 (stereo not drawn) [Compound 410, 3′-fluoro-4′-([2-[1-(1-methylpiperidin-4-yl)ethyl]-1,6-naphthyridin-7-yl]amino)-[1,1′-biphenyl]-3-carboxamide] | +++ (greater than 100-fold more active against CDK5 than CDK2)
9 | 10 to 100 | 100 to 1000 | NC(c1ccc2cnc(Nc3ccc(-n4cccn4)cc3F)cc2n1)C1CCNCC1 (stereo not drawn) [Compound 165, 2-[amino(piperidin-4-yl)methyl]-N-[2-fluoro-4-(pyrazol-1-yl)phenyl]-1,6-naphthyridin-7-amine] | ++ (greater than 10-fold and less than or equal to 100-fold more active against CDK5 than CDK2)
10 | < 10 | 100 to 1000 | COc1cccc(-c2ccc(Nc3cc4nc(S(=O)(=O)C5CCN(CC6COC6)CC5)ccc4cn3)c(F)c2)n1 [Compound 336] | +++ (greater than 100-fold more active against CDK5 than CDK2)

Continued, molecule first:

Row | SMILES | IC50 (CDK5/p25) [nM] | IC50 (CDK2/CycA2) [nM] | CDK5/CDK2 specificity (CDK5/p25)
11 | OCCN(c1ccc2cnc(Nc3ccc(-n4ccc(CO)n4)cc3F)cc2n1)C1CCNCC1 [Compound 105, 2-[[7-([2-fluoro-4-[3-(hydroxymethyl)pyrazol-1-yl]phenyl]amino)-1,6-naphthyridin-2-yl](piperidin-4-yl)amino]ethanol] | 10 to 100 | 100 to 1000 | ++ (greater than 10-fold and less than or equal to 100-fold more active against CDK5 than CDK2)
12 | COc1cc(-c2ccc(Nc3cc4nc(S(=O)(=O)C5CCN(CC6COC6)CC5)ccc4cn3)c(F)c2)ccn1 [Compound 328] | < 10 | > 1000 | +++ (greater than 100-fold more active against CDK5 than CDK2)
13 | Fc1cc(-n2cccn2)ccc1Nc1cc2nc(SC3CCNCC3)ccc2cn1 [Compound 107, N-[2-fluoro-4-(pyrazol-1-yl)phenyl]-2-(piperidin-4-ylsulfanyl)-1,6-naphthyridin-7-amine] | < 10 | 10 to 100 | ++ (greater than 10-fold and less than or equal to 100-fold more active against CDK5 than CDK2)
14 | CN1CCC(S(=O)(=O)c2ccc3cnc(Nc4ccc(-c5ncon5)cc4F)cc3n2)CC1 [Compound 376] | 100 to 1000 | 100 to 1000 | + (10-fold or less more active against CDK5 than CDK2)
15 | CC1CCN(c2ccc(Nc3cc4nc(S(=O)(=O)C5CCN(C)CC5)ccc4cn3)cc2)CC1 [Compound 308] | < 10 | 100 to 1000 | +++ (greater than 100-fold more active against CDK5 than CDK2)
16 | CC(C)c1ccc(Nc2cc3nc(S(=O)(=O)C4CCN(C)CC4)ccc3cn2)cc1 [Compound 298] | < 10 | 10 to 100 | +++ (greater than 100-fold more active against CDK5 than CDK2)
17 | CN1CCC(S(=O)(=O)c2ccc3cnc(Nc4ccc5c(c4)COC5)cc3n2)CC1 [Compound 282] | < 10 | 10 to 100 | ++ (greater than 10-fold and less than or equal to 100-fold more active against CDK5 than CDK2)
18 | OCCN(c1ccc2cnc(Nc3ccc(-n4nccc4CO)cc3F)cc2n1)C1CCNCC1 [Compound 103, 2-[[7-([2-fluoro-4-[5-(hydroxymethyl)pyrazol-1-yl]phenyl]amino)-1,6-naphthyridin-2-yl](piperidin-4-yl)amino]ethanol] | 10 to 100 | 100 to 1000 | ++ (greater than 10-fold and less than or equal to 100-fold more active against CDK5 than CDK2)
19 | CN1CCC(C(C)(O)c2ccc3cnc(Nc4ccc(-c5cccnc5)cc4F)cc3n2)CC1 (stereo not drawn) [Compound 327] | 100 to 1000 | > 1000 | ++ (greater than 10-fold and less than or equal to 100-fold more active against CDK5 than CDK2)
20 | Cc1cccc(Nc2cc3nc(S(=O)(=O)C4CCN(C)CC4)ccc3cn2)c1 [Compound 382] | < 10 | 10 to 100 | +++ (greater than 100-fold more active against CDK5 than CDK2)
21 | CN1CCC([C@@](C)(O)c2ccc3cnc(Nc4ccc(-n5cc(C(=O)O)cn5)cc4F)cc3n2)CC1 [Compound 362, 1-[3-fluoro-4-([2-[(1R)-1-hydroxy-1-(1-methylpiperidin-4-yl)ethyl]-1,6-naphthyridin-7-yl]amino)phenyl]pyrazole-4-carboxylic acid] | < 10 | 10 to 100 | ++ (greater than 10-fold and less than or equal to 100-fold more active against CDK5 than CDK2)
22 | CN1CCC(C)(Nc2ccc3cnc(Nc4ccc(-n5ccc(CO)n5)cc4F)cc3n2)CC1 [Compound 140, [1-[4-([2-[(1,4-dimethylpiperidin-4-yl)amino]-1,6-naphthyridin-7-yl]amino)-3-fluorophenyl]pyrazol-3-yl]methanol] | 100 to 1000 | > 1000 | + (10-fold or less more active against CDK5 than CDK2)
23 | CN1CCC(C(C)(O)c2ccc3cnc(Nc4ccc(-n5ccc(C#N)n5)cc4F)cc3n2)CC1 (stereo not drawn) [Compound 371] | < 10 | 100 to 1000 | ++ (greater than 10-fold and less than or equal to 100-fold more active against CDK5 than CDK2)
24 | CS(=O)(=O)N(c1ccc2cnc(Nc3ccc(-n4cccn4)cc3F)cc2n1)C1CCNCC1 [Compound 106, N-(7-[[2-fluoro-4-(pyrazol-1-yl)phenyl]amino]-1,6-naphthyridin-2-yl)-N-(piperidin-4-yl)methanesulfonamide] | > 1000 | > 1000 | + (10-fold or less more active against CDK5 than CDK2)
25 | CC(c1ccc2cnc(Nc3ccc(-n4ccc(C(=O)O)n4)cc3F)cc2n1)C1CCN(C)CC1 (stereo not drawn) [Compound 324] | 10 to 100 | > 1000 | +++ (greater than 100-fold more active against CDK5 than CDK2)
